# Experimental data: the supplement of paper PMC10307832
# Legend:
# Experiment in all cases: relative viability (nuclei count vs DMSO), 5 days (fraction); higher = more cells survive
# LCLC-103H = tested on: LCLC-103H
# Outline: (§1)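 Relative viability was taken as the ratio of nuclei in treated wells to nuclei in vehicle wells. Lung cancer cell lines in 1536-well plates received compounds by pin tool one day after seeding, either one drug alone or a fixed anchor-drug dose plus five library-drug doses (not always all listed) in √10 steps. Nuclei were counted on 4× images after 5 days of treatment, and values are medians of duplicate plates.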
# LK-2 = tested on: LK-2
# Outline: as §1
# NCI-H2126 = tested on: NCI-H2126
# Outline: as §1
# NCI-H1666 = tested on: NCI-H1666
# Outline: as §1
# HCC-827 = tested on: HCC-827
# Outline: as §1
# NCI-H1355 = tested on: NCI-H1355
# Outline: as §1
# NCI-H1944 = tested on: NCI-H1944
# Outline: as §1
# LOU-NH91 = tested on: LOU-NH91
# Outline: as §1
# NCI-H441 = tested on: NCI-H441
# Outline: as §1
# BEN = tested on: BEN
# Outline: as §1
# LXF-289 = tested on: LXF-289
# Outline: as §1
# NCI-H1993 = tested on: NCI-H1993
# Outline: as §1
# NCI-H661 = tested on: NCI-H661
# Outline: as §1
# NCI-H1437 = tested on: NCI-H1437
# Outline: as §1
# NCI-H727 = tested on: NCI-H727
# Outline: as §1
# NCI-H647 = tested on: NCI-H647
# Outline: as §1
# SK-MES-1 = tested on: SK-MES-1
# Outline: as §1
# NCI-H2170 = tested on: NCI-H2170
# Outline: as §1
# HOP-62 = tested on: HOP-62
# Outline: as §1
# ChaGo-K-1 = tested on: ChaGo-K-1
# Outline: as §1
# EKVX = tested on: EKVX
# Outline: as §1
# RERF-LC-KJ = tested on: RERF-LC-KJ
# Outline: as §1
# PC-14 = tested on: PC-14
# Outline: as §1
compound,measurement,setting,value
Cc1csc(=NC2CCCCC2)n1/N=C/c1ccc(O)c(O)c1O [MIM1] + COc1cc2c(Oc3ccc(NC(=O)C4(C(=O)Nc5ccc(F)cc5)CC4)cc3F)ccnc2cc1OCCCN1CCOCC1 [Foretinib] (partner 0.25 µM),relative viability,LCLC-103H; first compound 0.2 µM,0.82
same,relative viability,LCLC-103H; first compound 0.6325 µM,0.833
same,relative viability,LCLC-103H; first compound 2 µM,0.942
same,relative viability,LCLC-103H; first compound 6.325 µM,0.545
same,relative viability,LCLC-103H; first compound 20 µM,0.364
same,relative viability,LK-2; first compound 0.2 µM,1.46
same,relative viability,LK-2; first compound 2 µM,1.33
same,relative viability,LK-2; first compound 6.325 µM,1.17
same,relative viability,LK-2; first compound 20 µM,0.218
same,relative viability,NCI-H2126; first compound 0.2 µM,1.14
same,relative viability,NCI-H2126; first compound 0.6325 µM,1.17
same,relative viability,NCI-H2126; first compound 2 µM,1.35
same,relative viability,NCI-H2126; first compound 6.325 µM,1.12
same,relative viability,NCI-H2126; first compound 20 µM,0.491
same,relative viability,NCI-H1666; first compound 0.2 µM,0.943
same,relative viability,NCI-H1666; first compound 0.6325 µM,0.962
same,relative viability,NCI-H1666; first compound 2 µM,1
same,relative viability,NCI-H1666; first compound 6.325 µM,0.724
same,relative viability,NCI-H1666; first compound 20 µM,0.597
same,relative viability,HCC-827; first compound 0.2 µM,1.04
same,relative viability,HCC-827; first compound 0.6325 µM,1
same,relative viability,HCC-827; first compound 2 µM,1.01
same,relative viability,HCC-827; first compound 6.325 µM,0.402
same,relative viability,HCC-827; first compound 20 µM,0.207
same,relative viability,NCI-H1355; first compound 0.2 µM,0.911
same,relative viability,NCI-H1355; first compound 0.6325 µM,0.885
same,relative viability,NCI-H1355; first compound 2 µM,0.976
same,relative viability,NCI-H1355; first compound 6.325 µM,0.87
same,relative viability,NCI-H1355; first compound 20 µM,0.629
same,relative viability,NCI-H1944; first compound 0.2 µM,0.908
same,relative viability,NCI-H1944; first compound 0.6325 µM,0.93
same,relative viability,NCI-H1944; first compound 2 µM,0.581
same,relative viability,NCI-H1944; first compound 6.325 µM,0.709
same,relative viability,NCI-H1944; first compound 20 µM,0.564
same,relative viability,LOU-NH91; first compound 0.2 µM,0.9
same,relative viability,LOU-NH91; first compound 0.6325 µM,0.965
same,relative viability,LOU-NH91; first compound 2 µM,0.833
same,relative viability,LOU-NH91; first compound 6.325 µM,0.807
same,relative viability,LOU-NH91; first compound 20 µM,0.39
same,relative viability,NCI-H441; first compound 0.2 µM,1.17
same,relative viability,NCI-H441; first compound 2 µM,1.01
same,relative viability,NCI-H441; first compound 6.325 µM,0.617
same,relative viability,NCI-H441; first compound 20 µM,0.256
same,relative viability,BEN; first compound 0.2 µM,0.705
same,relative viability,BEN; first compound 0.6325 µM,0.531
same,relative viability,BEN; first compound 2 µM,0.719
same,relative viability,BEN; first compound 6.325 µM,0.551
same,relative viability,BEN; first compound 20 µM,0.294
same,relative viability,LXF-289; first compound 0.2 µM,1.02
same,relative viability,LXF-289; first compound 0.6325 µM,0.9
same,relative viability,LXF-289; first compound 2 µM,1.03
same,relative viability,LXF-289; first compound 6.325 µM,0.789
same,relative viability,LXF-289; first compound 20 µM,0.721
same,relative viability,NCI-H1993; first compound 0.2 µM,0.7
same,relative viability,NCI-H1993; first compound 0.6325 µM,0.715
same,relative viability,NCI-H1993; first compound 2 µM,0.671
same,relative viability,NCI-H1993; first compound 6.325 µM,0.659
same,relative viability,NCI-H1993; first compound 20 µM,0.64
same,relative viability,NCI-H661; first compound 0.2 µM,0.933
same,relative viability,NCI-H661; first compound 0.6325 µM,1
same,relative viability,NCI-H661; first compound 2 µM,0.939
same,relative viability,NCI-H661; first compound 6.325 µM,0.75
same,relative viability,NCI-H661; first compound 20 µM,0.355
same,relative viability,NCI-H1437; first compound 0.2 µM,1.24
same,relative viability,NCI-H1437; first compound 0.6325 µM,1.34
same,relative viability,NCI-H1437; first compound 2 µM,1.19
same,relative viability,NCI-H1437; first compound 6.325 µM,1.1
same,relative viability,NCI-H1437; first compound 20 µM,0.243
same,relative viability,NCI-H727; first compound 0.2 µM,0.948
same,relative viability,NCI-H727; first compound 0.6325 µM,0.883
same,relative viability,NCI-H727; first compound 2 µM,0.732
same,relative viability,NCI-H727; first compound 6.325 µM,0.968
same,relative viability,NCI-H727; first compound 20 µM,0.439
same,relative viability,NCI-H647; first compound 0.2 µM,1.16
same,relative viability,NCI-H647; first compound 0.6325 µM,1.12
same,relative viability,NCI-H647; first compound 6.325 µM,1
same,relative viability,NCI-H647; first compound 20 µM,0.703
same,relative viability,SK-MES-1; first compound 0.2 µM,0.897
same,relative viability,SK-MES-1; first compound 0.6325 µM,0.891
same,relative viability,SK-MES-1; first compound 2 µM,0.861
same,relative viability,SK-MES-1; first compound 6.325 µM,0.805
same,relative viability,SK-MES-1; first compound 20 µM,0.758
same,relative viability,NCI-H2170; first compound 0.2 µM,0.979
same,relative viability,NCI-H2170; first compound 0.6325 µM,1.01
same,relative viability,NCI-H2170; first compound 2 µM,0.824
same,relative viability,NCI-H2170; first compound 6.325 µM,0.77
same,relative viability,NCI-H2170; first compound 20 µM,0.295
same,relative viability,HOP-62; first compound 0.2 µM,1.14
same,relative viability,HOP-62; first compound 0.6325 µM,1.1
same,relative viability,HOP-62; first compound 2 µM,0.986
same,relative viability,HOP-62; first compound 6.325 µM,0.94
same,relative viability,HOP-62; first compound 20 µM,0.278
same,relative viability,ChaGo-K-1; first compound 0.2 µM,0.973
same,relative viability,ChaGo-K-1; first compound 0.6325 µM,1
same,relative viability,ChaGo-K-1; first compound 2 µM,0.774
same,relative viability,ChaGo-K-1; first compound 6.325 µM,0.771
same,relative viability,ChaGo-K-1; first compound 20 µM,0.282
same,relative viability,EKVX; first compound 0.2 µM,0.766
same,relative viability,EKVX; first compound 0.6325 µM,0.234
same,relative viability,EKVX; first compound 2 µM,0.75
same,relative viability,EKVX; first compound 6.325 µM,0.379
same,relative viability,EKVX; first compound 20 µM,0.422
same,relative viability,RERF-LC-KJ; first compound 0.2 µM,0.887
same,relative viability,RERF-LC-KJ; first compound 0.6325 µM,0.808
same,relative viability,RERF-LC-KJ; first compound 2 µM,0.803
same,relative viability,RERF-LC-KJ; first compound 6.325 µM,0.637
same,relative viability,RERF-LC-KJ; first compound 20 µM,0.24
same,relative viability,PC-14; first compound 0.2 µM,0.931
same,relative viability,PC-14; first compound 0.6325 µM,0.942
same,relative viability,PC-14; first compound 2 µM,0.908
same,relative viability,PC-14; first compound 6.325 µM,0.784
same,relative viability,PC-14; first compound 20 µM,0.629
